Data published in US11440906B2, “Biguanide derivatives and their rearrangement products for use in the treatment of cancer” (CENTRE NATIONAL DE LA RECHERCHE SCIENTIFIQUE, priority 2017, dated 2022).
Read-outs that look alike come from different tables or passages of the source.

Tested on: A375 Sensitive cells
Assay: Viability test, trypan blue exclusion, A375 Sensitive cells
Format: cell-based, human
Conditions: Homo sapiens, A-375, viable cells as percentage of DMSO control
Source text: Different melanoma cell lines were purchased from the American Tissue Culture Collection: A375 and WM9 cells are mutated on B-Raf, CDKN2A and PTEN proteins; SKmel28 cells are mutated on B-Raf and P53 proteins; 1205Lu cells are mutated on B-Raf and PTEN proteins; G-361 cells are mutated on B-Raf and CDKN2A proteins; C8161 cells are mutated on B-Raf and K-Ras proteins; WM3912 cells are mutated on B-Raf and CDKN2A proteins; MeWo cells are mutated on P53 and CDKN2A proteins; WM3918 presents no mutations on characteristic proteins.
For trypan blue staining, […] of cells (melanoma and normal human cells) were aseptically transferred to a 1.5 mL clear Eppendorf tube and incubated for 3 min at room temperature with an equal volume of 0.4% trypan blue solution. Viable cells were counted and the results are expressed as the percentage of the value of control cells. All the experiments are performed 3 times in triplicate.
A375 Sensitive cells were treated with different concentrations of the synthesized molecules (5.0 μM or 10 μM) for different times (24 hr or 48 hr) or with DMSO (Control) for 12 or 48 hr. At the end of the stimulation, viable cells were counted using the trypan blue dye exclusion method. The results are normalized as percentages compare to the control.
A375 Sensitive cells were treated with 5 μM of CRO15 for different times (2 hr, 4 hr, 6 hr, 8 hr, 12 hr, 24 hr or 48 hr) or with 5 μM of PLX4032 (B-Raf inhibitor) for 48 hr or with DMSO (Control) for 48 hr. At the end of stimulation, viable cells were counted using the trypan blue dye exclusion method. The results are normalized as percentages compare to the control and data means±SEM of three independent experiments performed in triplicate *p<0.05; **p<0.01; ***p<0.001.
A375 Sensitive cells were treated with different concentrations of CRO15 (0.5 μM, 2.5 μM, 5.0 μM, 7.5 μM, 50 μM) for 48 hr or with 5 μM of PLX4032 (B-Raf inhibitor) for 48 hr or with DMSO (Control) for 48 hr. At the end of the stimulation, viable cells were counted using the trypan blue dye exclusion method. The results are normalized as percentages compare to the control and data means±SEM of three independent experiments performed in triplicate *p<0.05; **p<0.01; ***p<0.001.
A375 sensitive and resistant melanoma cells were treated with 5 μM of CRO15 for 48 hr or with 5 μM of PLX4032 for 48 hr or with DMSO (Control). At 48 hours, viable cells were counted using the trypan blue dye exclusion method. The results are normalized as percentages compare to the control and data means±SEM of three independent experiments performed in triplicate *p<0.05; **p<0.01; ***p<0.001.

[1] = 24 h, read-out: Viab A375 5 μM/ 24 h
[2] = 48 h, read-out: Viab A375 5 μM/ 48 h
[3] = 24 h, read-out: Viab A375 10 μM/ 24 h
[4] = 48 h, read-out: Viab A375 10 μM/ 48 h

Row | Structure (SMILES) | viability at 5 µM [1] | viability at 5 µM [2] | viability at 10 µM [3] | viability at 10 µM [4]
1 | Cc1ccc2nc(NC(=N)NC(=N)c3cccc(Br)c3)sc2c1 [MTF 265, 3-bromo-N—(N-(6-methylbenzo[d]thiazol-2-yl)carbamimidoyl)benzimidamide] | 91% | 100% | 84% | 60%
2 | N=C(NC(=N)c1cccc(Cl)c1)Nc1nc(-c2ccccc2)cs1 [MTF 267, 3-chloro-N—(N-(4-phenylthiazol-2-yl)carbamimidoyl)benzimidamide] | 113% | 113% | 134% | 73.3%
3 | N=C(NC(=N)c1ccccc1)Nc1nc(-c2ccccc2)cs1 [MTF 272, N—(N-(4-phenylthiazol-2-yl)carbamimidoyl)benzimidamide] | 100% | 81% | 88% | 54.6%
4 | N=C(NC(=N)c1cccnc1)Nc1nc(-c2ccccc2)cs1 [MTF 273, N—(N-(4-phenylthiazol-2-yl)carbamimidoyl)nicotinimidamide] | 46% | 48% | 100% | 100%
5 | N=C(NC(=N)c1ccncc1)Nc1nc(-c2ccccc2)cs1 [MTF 274, N—(N-(4-phenylthiazol-2-yl)carbamimidoyl)isonicotinimidamide] | 83% | 93% | 84% | 89%
6 | N=C(NC(=N)c1ccccc1Cl)Nc1nc(-c2cccc([N+](=O)[O-])c2)cs1 [MTF 276, 2-chloro-N—(N-(4-(3-nitrophenyl)thiazol-2-yl)carbamimidoyl)benzimidamide] | 91.6% | 95.3% | 73.9% | 64.9%
7 | N=C(NC(=N)c1cccc(Cl)c1)Nc1nc(-c2cccc([N+](=O)[O-])c2)cs1 [MTF 277, 3-chloro-N—(N-(4-(3-nitrophenyl)thiazol-2-yl)carbamimidoyl)benzimidamide] | 77.6% | 88% | 76.4% | 85.8%
8 | N=C(NC(=N)c1ccc(Cl)cc1)Nc1nc(-c2cccc([N+](=O)[O-])c2)cs1 [MTF 281, 4-chloro-N—(N-(4-(3-nitrophenyl)thiazol-2-yl)carbamimidoyl)benzimidamide] | 79% | 112% | 57.4% | 78%
9 | Cc1csc(NC(=N)NC(=N)c2ccccc2)n1 [MTF 283, N—(N-(4-methylthiazol-2-yl)carbamimidoyl)benzimidamide] | 100% | 56% | 100% | 150%
10 | Cc1csc(NC(=N)NC(=N)c2ccccc2Cl)n1 [MTF 284, 2-chloro-N—(N-(4-methylthiazol-2-yl)carbamimidoyl)benzimidamide] | 80.1% | 117% | 104% | 76.9%
11 | Cc1csc(NC(=N)NC(=N)c2cccc(Cl)c2)n1 [MTF 285, 3-chloro-N—(N-(4-methylthiazol-2-yl)carbamimidoyl)benzimidamide] | 45% | 100% | 77.8% | 78.7%
12 | Cc1csc(NC(=N)NC(=N)c2ccc(Cl)cc2)n1 [MTF 286, 4-chloro-N—(N-(4-methylthiazol-2-yl)carbamimidoyl)benzimidamide] | 48% | 155% | 65.3% | 120%
13 | Cc1csc(NC(=N)NC(=N)c2ccccc2Br)n1 [MTF 287, 2-bromo-N—(N-(4-methylthiazol-2-yl)carbamimidoyl)benzimidamide] | 60.9% | 86.7% | 53.7% | 69.5%
14 | Cc1csc(NC(=N)NC(=N)c2cccc(Br)c2)n1 [MTF 288, 3-bromo-N—(N-(4-methylthiazol-2-yl)carbamimidoyl)benzimidamide] | 50% | 96.7% | 70% | 53.5%
15 | Cc1csc(NC(=N)NC(=N)c2ccccn2)n1 [MTF 289, N—(N-(4-methylthiazol-2-yl)carbamimidoyl)picolinimidamide] | 81.1% | 90.4% | 78.7% | 58.2%
16 | Cc1csc(NC(=N)NC(=N)c2cccnc2)n1 [MTF 290, N—(N-(4-methylthiazol-2-yl)carbamimidoyl)nicotinimidamide] | 43.4% | 21.6% | 50.5% | 14.4%
17 | Cc1csc(NC(=N)NC(=N)c2ccncc2)n1 [MTF 291, N—(N-(4-methylthiazol-2-yl)carbamimidoyl)isonicotinimidamide] | 100% | 95.2% | 100% | 41.3%
18 | COc1ccc(C(=N)NC(=N)Nc2nc(C)cs2)cc1 [MTF 292, 4-methoxy-N—(N-(4-methylthiazol-2-yl)carbamimidoyl)benzimidamide] | 88.1% | 83.3% | 142% | 71.9%
19 | Cc1nc(NC(=N)NC(=N)c2ccccc2Br)sc1C [MTF 295, 2-bromo-N—(N-(4,5-dimethylthiazol-2-yl)carbamimidoyl)benzimidamide] | 109% | 37.3% | 66.1% | 39.3%
20 | Cc1nc(NC(=N)NC(=N)c2ccccn2)sc1C [MTF 297, N—(N-(4,5-dimethylthiazol-2-yl)carbamimidoyl)picolinimidamide] | 86.2% | 59.8% | 97.9% | 24.9%
21 | Cc1nc(NC(=N)NC(=N)c2cccnc2)sc1C [MTF 298, N—(N-(4,5-dimethylthiazol-2-yl)carbamimidoyl)nicotinimidamide] | 97.2% | 73.6% | 87.5% | 54.7%
22 | Cc1nc(NC(=N)NC(=N)c2ccncc2)sc1C [MTF 299, N—(N-(4,5-dimethylthiazol-2-yl)carbamimidoyl)isonicotinimidamide] | 91.1% | 76.6% | 72.8% | 46.2%
23 | Cc1nc(NC(=N)NC(=N)c2ccccc2Cl)sc1C [MTF 300, 2-chloro-N—(N-(4,5-dimethylthiazol-2-yl)carbamimidoyl)benzimidamide] | 96% | 60% | 50.8% | 35.9%
24 | Cc1nc(NC(=N)NC(=N)c2cccc(Cl)c2)sc1C [MTF 301, 3-chloro-N—(N-(4,5-dimethylthiazol-2-yl)carbamimidoyl)benzimidamide] | 74% | 47% | 106% | 31.6%
25 | Cc1nc(NC(=N)NC(=N)c2ccc(Cl)cc2)sc1C [MTF 302, 4-chloro-N—(N-(4,5-dimethylthiazol-2-yl)carbamimidoyl)benzimidamide] | 105% | 52.3% | 94.8% | 39.3%
26 | Cc1nc(NC(=N)NC(=N)c2ccccc2)sc1C [MTF 303, N—(N-(4,5-dimethylthiazol-2-yl)carbamimidoyl)benzimidamide] | 85.6% | 44.2% | 66.1% | 39.1%
27 | N=C(NC(=N)C(Cl)(Cl)Cl)Nc1nc2ccccc2s1 [MTF 305, N—(N-(benzo[d]thiazol-2-yl)carbamimidoyl)-2,2,2-trichloroacetimidamide] | 11% | 20.7% | 5.5% | 4.7%
